Consider 19 compounds from US10125098B2, “Therapeutic compounds and methods of use thereof” (GENENTECH, INC., priority 2014, dated 2018).

pIC50: −log10 of the molar value. Counter-ions that a name gives are not always drawn.

In the first assay the target is T1, human NaV1.7 (Homo sapiens, UniProt Q15858).
T1 construct: permanently transfected with an expression vector containing the full-length cDNA coding for the desired human sodium channel α-subunit; expressed in transfected cells; host or cells: HEK-293
T1 sequence (Q15858 1-1977 isoform Q15858-3): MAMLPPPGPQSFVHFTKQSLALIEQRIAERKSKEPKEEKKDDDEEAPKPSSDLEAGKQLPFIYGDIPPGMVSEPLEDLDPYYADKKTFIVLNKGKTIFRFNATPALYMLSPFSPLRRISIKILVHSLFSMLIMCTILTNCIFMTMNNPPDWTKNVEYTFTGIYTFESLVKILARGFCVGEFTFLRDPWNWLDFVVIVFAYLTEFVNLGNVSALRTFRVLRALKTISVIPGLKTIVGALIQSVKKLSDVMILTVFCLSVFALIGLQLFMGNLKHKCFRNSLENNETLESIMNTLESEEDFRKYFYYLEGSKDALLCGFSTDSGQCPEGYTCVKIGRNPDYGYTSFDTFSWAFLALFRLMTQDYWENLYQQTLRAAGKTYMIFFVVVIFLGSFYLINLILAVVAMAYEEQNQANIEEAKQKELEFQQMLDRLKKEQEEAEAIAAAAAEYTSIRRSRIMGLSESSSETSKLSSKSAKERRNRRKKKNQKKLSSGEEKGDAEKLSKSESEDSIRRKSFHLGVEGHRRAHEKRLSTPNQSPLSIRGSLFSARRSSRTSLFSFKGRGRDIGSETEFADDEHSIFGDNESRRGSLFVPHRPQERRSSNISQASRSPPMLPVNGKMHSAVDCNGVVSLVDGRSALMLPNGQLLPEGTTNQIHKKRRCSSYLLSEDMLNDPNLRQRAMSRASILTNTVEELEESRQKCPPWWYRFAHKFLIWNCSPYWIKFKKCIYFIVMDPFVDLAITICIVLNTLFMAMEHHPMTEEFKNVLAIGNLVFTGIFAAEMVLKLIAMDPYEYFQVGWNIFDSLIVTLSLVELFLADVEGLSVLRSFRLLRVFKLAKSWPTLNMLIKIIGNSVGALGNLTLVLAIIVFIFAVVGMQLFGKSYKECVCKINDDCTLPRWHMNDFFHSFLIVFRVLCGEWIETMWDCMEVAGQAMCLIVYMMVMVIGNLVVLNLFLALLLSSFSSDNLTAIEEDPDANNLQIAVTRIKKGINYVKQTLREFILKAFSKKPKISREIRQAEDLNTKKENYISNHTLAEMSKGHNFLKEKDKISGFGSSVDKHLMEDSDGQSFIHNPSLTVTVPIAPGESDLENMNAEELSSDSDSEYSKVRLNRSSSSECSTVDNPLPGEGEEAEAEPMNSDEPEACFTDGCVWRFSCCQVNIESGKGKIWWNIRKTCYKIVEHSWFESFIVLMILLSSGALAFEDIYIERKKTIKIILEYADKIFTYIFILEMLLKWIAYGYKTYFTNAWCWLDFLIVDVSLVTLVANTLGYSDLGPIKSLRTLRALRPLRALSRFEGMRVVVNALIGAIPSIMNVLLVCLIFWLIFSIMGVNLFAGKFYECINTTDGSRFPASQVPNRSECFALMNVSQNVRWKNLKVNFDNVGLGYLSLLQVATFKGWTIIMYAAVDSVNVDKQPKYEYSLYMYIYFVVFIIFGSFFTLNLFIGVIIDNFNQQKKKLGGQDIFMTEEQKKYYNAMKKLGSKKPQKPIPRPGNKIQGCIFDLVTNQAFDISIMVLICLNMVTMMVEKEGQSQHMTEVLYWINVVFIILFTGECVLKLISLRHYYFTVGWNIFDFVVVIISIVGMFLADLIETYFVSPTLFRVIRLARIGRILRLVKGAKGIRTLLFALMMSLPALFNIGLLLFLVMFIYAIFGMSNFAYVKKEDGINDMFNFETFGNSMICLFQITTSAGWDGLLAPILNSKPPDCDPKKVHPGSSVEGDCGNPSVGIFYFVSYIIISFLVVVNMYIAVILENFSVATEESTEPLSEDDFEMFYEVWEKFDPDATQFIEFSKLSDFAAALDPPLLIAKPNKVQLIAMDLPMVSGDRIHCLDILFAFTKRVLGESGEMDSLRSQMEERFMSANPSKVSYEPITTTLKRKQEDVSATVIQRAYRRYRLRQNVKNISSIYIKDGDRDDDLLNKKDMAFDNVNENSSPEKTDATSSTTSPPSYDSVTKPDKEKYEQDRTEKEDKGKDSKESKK
T1 sequence (Q07699 19-218 partner): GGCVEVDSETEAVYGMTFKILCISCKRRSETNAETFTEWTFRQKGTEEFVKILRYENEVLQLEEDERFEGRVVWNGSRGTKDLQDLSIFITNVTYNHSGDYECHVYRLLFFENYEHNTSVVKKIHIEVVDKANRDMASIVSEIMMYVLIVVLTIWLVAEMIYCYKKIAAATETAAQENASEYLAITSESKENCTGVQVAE
The assay can be described thus: Patch voltage clamp electrophysiology assay (EP), NaV1.7. The conditions noted are these: HEK-293 cells stably expressing NaV1.7 with β1 subunit; whole-cell patch clamp, membrane potential −60 mV (inactivated state). The class given is cell-based. On the procedure: The following patch voltage clamp electrophysiology studies were performed on representative compounds of the invention using human embryonic kidney cells (HEK), permanently transfected with an expression vector containing the full-length cDNA coding for the desired human sodium channel α-subunit, grown in culture media containing 10% FBS, 1% PSG, and 0.5 mg/mL G418 at 37° C. with 5% CO2. […] NaV1.7 and NaV1.5 cDNAs (NM_002977 and AC137587; SCN5A, respectively) were stably expressed in HEK-293 cells. The β1 subunit was coexpressed in both the NaV1.7 and NaV1.5 cell lines.
Sodium currents were measured using the patch clamp technique in the whole-cell configuration using either a PatchXpress automated voltage clamp or manually using an Axopatch 200B (Axon Instruments) or Model 2400 (A-M systems) amplifier. The manual voltage clamp protocol was as follows: Borosilicate glass micropipettes were fire-polished to a tip diameter yielding a resistance of 2-4 Mohms in the working solutions. The pipette was filled with a solution comprised of: 5 mM NaCl, 10 mM CsCl, 120 mM CsF, 0.1 mM CaCl2, 2 mM MgCl2, 10 mM HEPES, 10 mM EGTA; and adjusted to pH 7.2 with CsOH. The external solution had the following composition: 140 mM NaCl, 5 mM KCl, 2 mM CaCl2, 1 mM MgCl2, 10 mM HEPES; and adjusted to pH 7.4 with NaOH. In some studies, the external sodium was reduced by equimolar replacement with choline. Osmolarity in the CsF internal and NaCl external solutions was adjusted to 300 mOsm/kg and 310 mOsm/kg with glucose, respectively. All recordings were performed at ambient temperature in a bath chamber with a volume of 150 μL. Control sodium currents were measured in 0.5% DMSO. Controls and representative compounds of the invention were applied to the recording chamber through a 4-pinch or 8-pinch valve bath perfusion system manufactured by ALA Scientific Instruments.
Series resistance compensation was applied (60-80%). […] All statistics in this study are given as mean±SD.
The membrane potential was maintained at a voltage where inactivation of the channel is complete (which was −60 mV for both NaV1.7 and NaV1.5). The voltage is then stepped back to a very negative (Vhold=[…]) voltage for 20 ms and then a test pulse is applied to quantify the compound block. […] The percent decrease in sodium current following wash-on of compound was taken as the percent block of sodium channels.
On the technique in general: Patch clamp records ionic current or voltage across a cell membrane.
For `O=C(O)[C@@H]1CCCN1C(=O)c1cc(C2CC2)c(OC2C3CC4CC2CC(Cl)(C4)C3)cc1F` (single isomer, unassigned) [Example 82], the pIC50 – broadly, −log10 of the IC50, conventionally taken in molar units – is 5.74.
On the same count and under the same terms, under `O=C(O)[C@@H]1C[C@H](O)CN1C(=O)c1cc(C2CC2)c(OCC23CC4CC(CC(C4)C2)C3)cc1F` [Example 46, (2S,4S)-1-[4-(1-adamantylmethoxy)-5-cyclopropyl-2-fluoro-benzoyl]-4-hydroxy-pyrrolidine-2-carboxylic acid] stands 6.06.

The target in the next assay is T2, hNav1.7 (Homo sapiens, UniProt Q15858).
T2 construct: expressed in transfected cells
T2 sequence (Q15858 1-1977 isoform Q15858-3): as the sequence (Q15858 1-1977 isoform Q15858-3) above
T2 sequence (Q07699 19-218 partner): as the sequence (Q07699 19-218 partner) above
The assay can be described thus: Tritiated compound binding (LBA) to membranes from cells expressing hNav1.7 and the β1 subunit, competitive binding. To be noted: competitive binding vs 100 pM [3H]compound, 18 h, room temperature, membranes with hNav1.7 and β1 subunit. On the procedure:
Tritiated Compound Binding to Membranes
Isolated from Cells that Heterologously Express hNav1.7 and the β1 Subunit
Preparation of membranes containing recombinantly expressed sodium channels: Frozen recombinant cell pellets were thawed on ice and diluted to 4 times the cell pellet weight with ice cold 50 mM Tris HCl, pH 7.4 buffer. The cell suspensions were homogenized on ice using a motorized glass dounce homogeniser. […] The supernatants were collected and centrifuged at 10000×g at 4° C. for 50 min. The pellets were then re-suspended in 100 mM NaCl, 20 mM Tris HCl, pH 7.4 buffer containing 1% v/v protease inhibitors (Calbiochem) and re-homogenized on ice. The homogenized membranes were then processed through a syringe equipped with a 26 gauge needle. Protein concentrations were determined by Bradford Assay and the membranes were stored at −80° C.
Saturation experiments. A representative compound of formula (I) having a methyl group was tritiated. Three tritiums were incorporated in place of methyl hydrogens to generate [^3H]compound. Binding of this radioligand was performed in 5 mL borosilicate glass test tubes at room temperature. Binding was initiated by adding membranes to increasing concentrations of [^3H]compound in 100 mM NaCl, 20 mM Tris HCl, pH 7.4 buffer containing 0.01% w/v bovine serum albumin (BSA) for 18 h. Non-specific binding was determined in the presence of 1 μM unlabeled compound. After 18 h, the reactants were filtered through GF/C glass fiber filters presoaked in 0.5% w/v polyethylene imine. […] [^3H]compound bound to filters was quantified by liquid scintillation counting.
Binding reactions were performed in 96-well polypropylene plates at room temperature for 18 h. In 360 μL, membranes were incubated with 100 pM [^3H]compound and increasing concentrations of Test Compound. Non-specific binding was defined in the presence of 1 μM unlabeled compound. Reactions were transferred and filtered through 96-well glass fiber/C filter plates presoaked with 0.5% polyethylene imine. […] Bound radioactivity was determined by liquid scintillation counting.
Data Analysis: For saturation experiments, non-specific binding was subtracted from total binding to provide specific binding and these values were recalculated in terms of pmol ligand bound per mg protein. Saturation curves were constructed and dissociation constants were calculated using the single site ligand binding model: Beq=(Bmax*X)/(X+Kd), where Beq is the amount of ligand bound at equilibrium, Bmax is the maximum receptor density, Kd is the dissociation constant for the ligand, and X is the free ligand concentration. For competition studies percent inhibition was determined and IC50 values were calculated using a 4 parameter logistic model (% inhibition=(A+((B−A)/(1+((x/C)^D)))) using XLfit, where A and B are the maximal and minimum inhibition respectively, C is the IC50 concentration and D is the (Hill) slope.
Compound `O=C(O)[C@@H]1CCCN1C(=O)c1cc(C2CC2)c(OC2C3CC4CC2CC(Cl)(C4)C3)cc1F` (single isomer, unassigned) [Example 82] gave a pIC50 of 5.96.
Still for that read-out and setting: under `O=C(O)[C@@H]1C[C@H](O)CN1C(=O)c1cc(C2CC2)c(OCC23CC4CC(CC(C4)C2)C3)cc1F` [Example 46, (2S,4S)-1-[4-(1-adamantylmethoxy)-5-cyclopropyl-2-fluoro-benzoyl]-4-hydroxy-pyrrolidine-2-carboxylic acid] stands 6.82; under `O=C(O)[C@@H]1CCCN1C(=O)c1cc(F)c(Oc2ccc(Cl)cc2-c2ccccc2)cc1F` [Example 22, (S)-1-(4-((5-chloro-[1,1′-biphenyl]-2-yl)oxy)-2,5-difluorobenzoyl)pyrrolidine-2-carboxylic acid], less than 5.00.
Same read-out and setting: under `O=C(O)[C@@H]1CCCN1C(=O)c1cc(C2CC2)c(CN2CCC(Oc3cc(Cl)cc(OC(F)(F)F)c3)CC2)cc1F` [Example 20, (S)-1-(4-((4-(3-chloro-5-(trifluoromethoxy)phenoxy)piperidin-1-yl)methyl)-5-cyclopropyl-2-fluorobenzoyl)pyrrolidine-2-carboxylic acid trifluoroacetic acid salt] stands 6.26; under `CC(C)c1cc(C(=O)N2CCC[C@H]2C(=O)O)c(F)cc1OCC12CC3CC(CC(C3)C1)C2` [Example 17, (S)-1-(4-(adamantan-1-ylmethoxy)-2-fluoro-5-isopropylbenzoyl)pyrrolidine-2-carboxylic acid], 7.06.
Still for that read-out and setting: under `O=C(O)[C@@H]1CCCN1C(=O)c1cc(C2CC2)c(OCC23CC4(F)CC(F)(CC(F)(C4)C2)C3)cc1F` [Example 4, (5)-1-(5-cyclopropyl-2-fluoro-4-((3,5,7-trifluoroadamantan-1-yl)methoxy)benzoyl)pyrrolidine-2-carboxylic acid] stands 6.09; under `C[C@@H](Oc1ccc(Cl)c(Cl)c1)c1cc(F)c(C(=O)N2CCC[C@H]2C(=O)O)cc1C1CC1` [Example 14, (S)-1-(5-cyclopropyl-4-((R)-1-(3,4-dichlorophenoxy)ethyl)-2-fluorobenzoyl)pyrrolidine-2-carboxylic acid], 5.63.
In the case of `CC(C)(NC(=O)c1cc(C2CC2)c(OCC23CC4CC(CC(C4)C2)C3)cc1F)C(=O)O` [Example 8, 2-(4-(adamantan-1-ylmethoxy)-5-cyclopropyl-2-fluorobenzamido)-2-methylpropanoic acid], the negative logarithm of the IC50 (pIC50) was 5.77. This pIC50 and that of the compound before are within 0.2 log units of each other.
On the same count and under the same terms, under `O=C(O)[C@@H]1CCCN1C(=O)c1cc(C2CC2)c(OCC2CCN(C(c3ccccc3)c3cc(Cl)cc(Cl)c3)CC2)cc1F` (stereo partly drawn) [Example 26, (2S)-1-(5-cyclopropyl-4-((1-((3,5-dichlorophenyl)(phenyl)methyl)piperidin-4-yl)methoxy)-2-fluorobenzoyl)pyrrolidine-2-carboxylic acid trifluoroacetic acid salt] stands 7.74; under `C[C@@H](Oc1cnc(C2CC2)c(Cl)c1)c1cc(F)c(C(=O)N2CCC[C@H]2C(=O)O)cc1C1CC1` [Example 15, (S)-1-(4-((R)-1-((5-chloro-6-cyclopropylpyridin-3-yl)oxy)ethyl)-5-cyclopropyl-2-fluorobenzoyl)pyrrolidine-2-carboxylic acid], 5.16; under `O=C(O)[C@@H]1CCCN1C(=O)c1cc(C2CC2)c(OCC2CCN(Cc3nc(-c4ccccc4Cl)no3)CC2)cc1F` [Example 29, (S)-1-(4-((1-((3-(2-chlorophenyl)-1,2,4-oxadiazol-5-yl)methyl)piperidin-4-yl)methoxy)-5-cyclopropyl-2-fluorobenzoyl)pyrrolidine-2-carboxylic acid trifluoroacetic acid salt], 6.20.
Still for that read-out and setting: under `O=C(NC1(C(=O)O)CC1)c1cc(Cl)c(Oc2ccc(OC(F)(F)F)c(Cl)c2)cc1F` [Example 36, 1-(5-chloro-4-(3-chloro-4-(trifluoromethoxy)phenoxy)-2-fluorobenzamido)-cyclopropanecarboxylic acid] stands less than 5.00.
Same read-out and setting: under `O=C(O)[C@@H]1CCCN1C(=O)c1cc(F)c(Oc2ccc(Cl)cc2-c2ccnn2C2CNC2)cc1F` [Example 34, (S)-1-(4-(2-(1-(azetidin-3-yl)-1H-pyrazol-5-yl)-4-chlorophenoxy)-2,5-difluorobenzoyl)pyrrolidine-2-carboxylic acid trifluoroacetic acid salt] stands less than 5.00; under `O=C(O)[C@@H]1CCCN1C(=O)c1cc(C2CC2)c(CN2CCO[C@H](Cc3cc(Cl)cc(Cl)c3)C2)cc1F` [Example 5, (S)-1-(5-cyclopropyl-4-(((R)-2-(3,5-dichlorobenzyl)morpholino)methyl)-2-fluorobenzoyl)pyrrolidine-2-carboxylic acid trifluoroacetic acid salt], 6.33.
On to `Cc1cc(C(=O)N2CCC[C@H]2C(=O)O)c(F)cc1OCC12CC3CC(CC(C3)C1)C2` [Example 40, (S)-1-(4-(adamantan-1-ylmethoxy)-2-fluoro-5-methylbenzoyl)pyrrolidine-2-carboxylic acid], for which the negative-log IC50 (pIC50) was 6.34.
As for `O=C(O)[C@@H]1CCCN1C(=O)c1ccc(OCC23CC4CC(CC(C4)C2)C3)c(Cl)c1` [Example 23, (S)-1-((4-(adamantan-1-ylmethoxy))-3-chlorobenzoyl)pyrrolidine-2-carboxylic acid], the negative logarithm of the IC50 (pIC50) is 5.40.
Still for that read-out and setting: under `O=C(O)[C@@H]1CCCN1C(=O)c1cc(C2CCC2)c(OCC23CC4CC(CC(C4)C2)C3)cc1F` [Example 27, (S)-1-(4-(adamantan-1-ylmethoxy)-5-cyclobutyl-2-fluorobenzoyl)pyrrolidine-2-carboxylic acid] stands 7.66; under `O=C(O)[C@@H]1CCCN1C(=O)c1cc(C2CC2)c(CN2[C@@H]3CC[C@H]2C[C@@H](Oc2cc(Cl)cc(OC(F)(F)F)c2)C3)cc1F` [Example 19, (S)-1-(4-(((1R,3S,5S)-3-(3-chloro-5-(trifluoromethoxy)phenoxy)-8-azabicyclo[3.2.1]octan-8-yl)methyl)-5-cyclopropyl-2-fluorobenzoyl)pyrrolidine-2-carboxylic acid trifluoroacetic acid salt], 6.35; under `COC[C@H](NC(=O)c1cc(C2CC2)c(OCC23CC4CC(CC(C4)C2)C3)cc1F)C(=O)O` [Example 10, (S)-2-(4-(adamantan-1-ylmethoxy)-5-cyclopropyl-2-fluorobenzamido)-3-methoxypropanoic acid], 6.17.
